Test results as given in US20080119515A1, “Heterocyclic Kinase Inhibitors: Methods of Use and Synthesis” (priority 2003, published 2008).

Target: T1, ZAP-70 (Homo sapiens, UniProt P43403)
T1 sequence (P43403 1-619): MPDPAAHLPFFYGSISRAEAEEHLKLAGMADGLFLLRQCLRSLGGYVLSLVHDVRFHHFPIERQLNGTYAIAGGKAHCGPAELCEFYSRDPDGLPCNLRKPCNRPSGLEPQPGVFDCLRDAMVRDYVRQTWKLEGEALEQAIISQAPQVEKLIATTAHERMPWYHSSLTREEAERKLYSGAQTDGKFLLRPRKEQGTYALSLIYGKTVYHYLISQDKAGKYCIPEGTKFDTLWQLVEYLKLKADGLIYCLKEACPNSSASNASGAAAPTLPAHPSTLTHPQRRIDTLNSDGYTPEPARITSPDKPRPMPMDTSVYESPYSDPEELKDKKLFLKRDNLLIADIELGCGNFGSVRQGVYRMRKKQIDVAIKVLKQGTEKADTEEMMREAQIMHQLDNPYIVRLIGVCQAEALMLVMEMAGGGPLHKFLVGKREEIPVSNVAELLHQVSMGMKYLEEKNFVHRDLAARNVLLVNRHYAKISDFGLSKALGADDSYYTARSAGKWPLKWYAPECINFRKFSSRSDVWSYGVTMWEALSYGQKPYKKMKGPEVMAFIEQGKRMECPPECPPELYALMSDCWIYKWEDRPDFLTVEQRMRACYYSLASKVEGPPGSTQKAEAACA
Assay: DELFIA assay (ZAP-70 kinase, phosphorylation of biotinylated poly(glu,tyr))
Format: biochemical
Conditions: ZAP-70 DELFIA, class symbols; read-out: Activity (IC50 in vitro)
Procedure, shortened: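 3.1 nM ZAP-70 pre-incubated 10 min at room temperature with compound ([…]) and 62.5 nM biotinylated poly(glu,tyr) in 62.5 mM Mops pH 7.0, 12.5 mM MgCl2, 12.5% glycerol, 6.25% DMSO (pre-incubation concentrations); ATP added from 5 mM stock, 30 min reaction, EDTA stop. Phosphorylation read by DELFIA europium anti-phosphotyrosine fluorescence (340/615).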

Row | IC50 | Structure (SMILES)
1 | > 10 µM | Fc1ccc(CCc2cc(Nc3ccc(N4CCNCC4)cc3)c3cc(-c4ccc5c(c4)OCO5)ccc3n2)cc1 [Compound 414]
2 | > 10 µM | CN(C)c1ccc(Nc2cc(CCc3ccc(F)cc3)nc3ccc(-c4ccc5c(c4)OCO5)cc23)cc1 [Compound 415]
3 | > 10 µM | O=C(c1cc(NCc2ccc(C(F)(F)F)cc2)nc2ccc(-c3cccc(CO)c3)cc12)N1CCC[C@H]1CN1CCCC1 [Compound 416]
4 | > 10 µM | O=C(c1cc(NCc2ccc(C(F)(F)F)cc2)nc2ccc(-c3ccc(CO)cc3)cc12)N1CCC[C@H]1CN1CCCC1 [Compound 417]
5 | > 10 µM | COc1cc(-c2ccc3nc(NCc4ccc(C(F)(F)F)cc4)cc(C(=O)N4CCC[C@H]4CN4CCCC4)c3c2)ccc1O [Compound 418]
6 | > 10 µM | O=C(c1cc(NCc2ccc(C(F)(F)F)cc2)nc2ccc(-c3ccc(O)cc3)cc12)N1CCC[C@H]1CN1CCCC1 [Compound 419]
7 | > 10 µM | CN(C)C(=O)c1ccc(-c2ccc3nc(NCc4ccc(C(F)(F)F)cc4)cc(C(=O)N4CCC[C@H]4CN4CCCC4)c3c2)cc1 [Compound 420]
8 | > 10 µM | Cn1ccc2cc(-c3ccc4nc(NCc5ccc(C(F)(F)F)cc5)cc(C(=O)N5CCC[C@H]5CN5CCCC5)c4c3)ccc21 [Compound 421]
9 | > 10 µM | CC(C)(C)/C=C/c1ccc2nc(NCc3ccc(C(F)(F)F)cc3)cc(C(=O)N3CCC[C@H]3CN3CCCC3)c2c1 [Compound 422]
10 | > 10 µM | Nc1ccc(-c2ccc3nc(NCc4ccc(C(F)(F)F)cc4)cc(C(=O)N4CCC[C@H]4CN4CCCC4)c3c2)cc1 [Compound 424]
11 | > 10 µM | O=C(c1cc(NCc2ccc(C(F)(F)F)cc2)nc2ccc(-c3cccc([C@H]4CCNC[C@@H]4O)c3)cc12)N1CCC[C@H]1CN1CCCC1 [Compound 425]
12 | > 10 µM | O=C(c1cc(NCc2ccc(C(F)(F)F)cc2)nc2ccc(-c3ccc(C4CCNC[C@H]4O)cc3)cc12)N1CCC[C@H]1CN1CCCC1 (some centres unmarked) [Compound 426]
13 | > 10 µM | O=C(c1cc(NCc2ccc(C(F)(F)F)cc2)nc2ccc(-c3cccc([C@H]4CNCC[C@@H]4O)c3)cc12)N1CCC[C@H]1CN1CCCC1 [Compound 427]
14 | < 1 µM | O=C(c1cc(Nc2ccc(N3CCNCC3)cc2)nc2ccc(-c3ccc4c(c3)OCO4)cc12)N1CCCC1CN1CCCC1 (centres unmarked) [Compound 428]
15 | < 1 µM | CN1CCN(c2ccc(Nc3cc(C(=O)N4CCCC4CN4CCCC4)c4cc(-c5ccc6c(c5)OCO6)ccc4n3)cc2)CC1 (centres unmarked) [Compound 429]
16 | < 1 µM | O=C(c1cc(Nc2cccc(C3CCNC[C@@H]3O)c2)nc2ccc(-c3ccc4c(c3)OCO4)cc12)N1CCCC1CN1CCCC1 (some centres unmarked) [Compound 430]
17 | 1 to 10 µM | O=C(Cc1cc(C(=O)N2CCC[C@H]2CN2CCCC2)c2cc(-c3ccc4c(c3)OCO4)ccc2n1)c1ccc(C(F)(F)F)cc1 [Compound 431]
18 | < 1 µM | Nc1cc(-c2ccc3c(c2)OCO3)cc2c(C(=O)N3CCC[C@H]3CN3CCCC3)cc(CCc3ccc(C(F)(F)F)cc3)nc12 [Compound 432]

Row | IC50 | Structure (SMILES)
19 | < 1 µM | Nc1cc(CCc2ccc(C(F)(F)F)cc2)cc2c(C(=O)N3CCC[C@H]3CN3CCCC3)cc(CCc3ccc(C(F)(F)F)cc3)nc12 [Compound 433]
20 | < 1 µM | O=C(c1cc(CCCc2ccccc2)nc2ccc(-c3ccc4c(c3)OCO4)cc12)N1CCC[C@H]1CN1CCCC1 [Compound 434]
21 | < 1 µM | O=C(c1cc(CCCCc2ccccc2)nc2ccc(-c3ccc4c(c3)OCO4)cc12)N1CCC[C@H]1CN1CCCC1 [Compound 435]
22 | < 1 µM | O=C(c1cc(CC(O)c2ccc(C(F)(F)F)cc2)nc2ccc(-c3ccc4c(c3)OCO4)cc12)N1CCC[C@H]1CN1CCCC1 (some centres unmarked) [Compound 436]
23 | < 1 µM | NCc1ccc(CNc2cc(C(=O)N3CCC[C@H]3CN3CCCC3)c3cc(-c4ccc5c(c4)OCO5)ccc3n2)cc1 [Compound 437]
24 | < 1 µM | CC1CN(c2ccc(Cc3cc(C(=O)N4CCCC4CN4CCCC4)c4cc(-c5ccc6c(c5)OCO6)ccc4n3)cc2)CCN1 (centres unmarked) [Compound 438]
25 | < 1 µM | O=C(c1cc(Cc2ccc(N3CCNCC3)cc2)nc2ccc(-c3ccc4c(c3)OCO4)cc12)N1CCCC1CN1CCCC1 (centres unmarked) [Compound 439]
26 | < 1 µM | O=C(c1cc(Cc2ccc(N3CCN(c4ccncc4)CC3)cc2)nc2ccc(-c3ccc4c(c3)OCO4)cc12)N1CCCC1CN1CCCC1 (centres unmarked) [Compound 440]
27 | < 1 µM | CN(C)CCCN1CCN(c2ccc(Cc3cc(C(=O)N4CCCC4CN4CCCC4)c4cc(-c5ccc6c(c5)OCO6)ccc4n3)cc2)CC1 (centres unmarked) [Compound 441]
28 | < 1 µM | CN(C)CCN1CCN(c2ccc(Cc3cc(C(=O)N4CCCC4CN4CCCC4)c4cc(-c5ccc6c(c5)OCO6)ccc4n3)cc2)CC1 (centres unmarked) [Compound 442]
29 | < 1 µM | O=C(c1cc(Cc2ccc(N3CCN(Cc4ccncc4)CC3)cc2)nc2ccc(-c3ccc4c(c3)OCO4)cc12)N1CCCC1CN1CCCC1 (centres unmarked) [Compound 443]
30 | < 1 µM | O=C(c1cc(Cc2ccc(N3CCN(CCc4ccncc4)CC3)cc2)nc2ccc(-c3ccc4c(c3)OCO4)cc12)N1CCCC1CN1CCCC1 (centres unmarked) [Compound 444]
31 | < 1 µM | O=C(c1cc(Cc2ccc(N3CCC4(CC3)CNC4)cc2)nc2ccc(-c3ccc4c(c3)OCO4)cc12)N1CCCC1CN1CCCC1 (centres unmarked) [Compound 445]
32 | < 1 µM | O=C(c1cc(Cc2ccc(N3CCC4(CCNC4)CC3)cc2)nc2ccc(-c3ccc4c(c3)OCO4)cc12)N1CCCC1CN1CCCC1 (centres unmarked) [Compound 446]
33 | < 1 µM | O=C(c1cc(Cc2ccc(N3CCC4(CCNCC4)CC3)cc2)nc2ccc(-c3ccc4c(c3)OCO4)cc12)N1CCCC1CN1CCCC1 (centres unmarked) [Compound 447]
34 | < 1 µM | CN1CCN(c2ccc(Nc3cc(Nc4ccc(N5CCN(C)CC5)cc4)c4cc(-c5ccc6c(c5)OCO6)ccc4n3)cc2)CC1 [Compound 448]
35 | < 1 µM | c1cc(N2CCNCC2)ccc1Nc1cc(Nc2ccc(N3CCNCC3)cc2)c2cc(-c3ccc4c(c3)OCO4)ccc2n1 [Compound 449]
